As usually defined, the pIC50 is −log10 of the IC50, conventionally taken in molar units.

This is an account of results in patent US10000496B2, “Compositions useful for treating disorders related to kit and PDGFR” (BLUEPRINT MEDICINES CORPORATION, priority 2015, dated 2018).

One experiment deals with T1, D816V Kit (Homo sapiens, UniProt P10721, D816V).
T1 construct: purchased Carna Bioscience 08-156
As to the kind of experiment: Kit D816V assay at Km (Caliper electrophoretic mobility shift). The following applies: D816V Kit 0.5 nM, 15 uM ATP (Km), 1 uM Srctide, 25 C, 90 minutes; read-out: Biochemical Activity D816V IC50. As for the experimental part:
In order to assess the activity of chemical compounds against the relevant kinase of interest, the Caliper LifeSciences electrophoretic mobility shift technology platform is used. Fluorescently labeled substrate peptide is incubated in the presence of kinase and ATP so that a […] proportion of the peptide is phosphorylated. At the end of the reaction, the mix of phosphorylated (product) and non-phosphorylated (substrate) peptides are passed through the microfluidic system of the Caliper EZ Reader 2, under an applied potential difference. The presence of the phosphate group on the product peptide provides a difference in mass and charge between those of the substrate peptide, resulting in a separation of the substrate and product pools in the sample. As the pools pass a LEDS within the instrument, these pools are detected and resolved as separate peaks. The ratio between these peaks therefore reflects the activity of the chemical matter at that concentration in that well, under those conditions.
Kit D816V assay at Km: In each well of a 384-well plate, 0.04 ng/ul (0.5 nM) of D816V Kit (Carna Bioscience 08-156) was incubated in a total of 12.5 ul of buffer (100 mM HEPES pH 7.5, 0.015% Brij 35, 10 mM MgCl2, 1 mM DTT) with 1 uM Srctide (5-FAM-GEEPLYWSFPAKKK-NH2) and 15 uM ATP at 25 C for 90 minutes in the presence or absence of a dosed concentration series of compound (1% DMSO final concentration). The reaction was stopped by the addition of 70 ul of Stop buffer (100 mM HEPES pH 7.5, 0.015% Brij 35, 35 mM EDTA and 0.2% of Coating Reagent 3 (Caliper Lifesciences)). The plate was then read on a Caliper EZReader 2 (protocol settings:—1.9 psi, upstream voltage—700, downstream voltage—3000, post sample sip 35s). Data was normalized to 0% and 100% inhibition controls and the IC50 or EC50 calculated using a 4-parameter fit using GraphPad Prism.

The target in experiment [1] is T2, Kit D816V in HMC1.2 cells (Homo sapiens, UniProt P10721, D816V/V560G).
T2 construct: endogenous in cells; host or cells: HMC1.2
T2 sequence (P10721 26-976 V560G/D816V): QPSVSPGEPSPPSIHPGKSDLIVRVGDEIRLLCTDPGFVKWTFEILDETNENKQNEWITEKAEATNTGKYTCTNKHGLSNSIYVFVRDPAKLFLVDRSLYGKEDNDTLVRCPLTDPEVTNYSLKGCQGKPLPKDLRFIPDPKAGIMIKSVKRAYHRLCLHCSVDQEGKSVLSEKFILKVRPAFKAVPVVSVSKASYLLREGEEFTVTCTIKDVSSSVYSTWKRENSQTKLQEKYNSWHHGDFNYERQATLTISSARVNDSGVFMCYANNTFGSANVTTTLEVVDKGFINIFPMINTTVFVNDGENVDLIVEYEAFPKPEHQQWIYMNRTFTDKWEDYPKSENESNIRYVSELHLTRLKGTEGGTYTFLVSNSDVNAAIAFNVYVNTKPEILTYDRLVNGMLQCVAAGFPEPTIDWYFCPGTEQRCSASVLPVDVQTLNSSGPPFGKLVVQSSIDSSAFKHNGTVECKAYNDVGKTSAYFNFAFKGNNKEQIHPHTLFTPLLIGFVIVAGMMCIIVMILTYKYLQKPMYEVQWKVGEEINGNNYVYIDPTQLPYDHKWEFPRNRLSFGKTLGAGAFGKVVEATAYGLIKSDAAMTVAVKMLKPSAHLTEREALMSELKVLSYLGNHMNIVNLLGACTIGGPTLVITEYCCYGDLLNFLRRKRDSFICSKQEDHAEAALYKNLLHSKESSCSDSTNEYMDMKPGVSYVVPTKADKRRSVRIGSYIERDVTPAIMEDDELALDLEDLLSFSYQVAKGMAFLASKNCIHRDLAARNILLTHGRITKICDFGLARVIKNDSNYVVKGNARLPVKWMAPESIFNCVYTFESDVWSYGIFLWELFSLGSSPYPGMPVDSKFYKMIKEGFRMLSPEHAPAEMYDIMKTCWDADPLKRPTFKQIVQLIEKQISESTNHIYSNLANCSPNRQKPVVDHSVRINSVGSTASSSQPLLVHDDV
As to the kind of experiment: HMC1.2 autophosphorylation assay (Kit autophosphorylation at tyrosine 719, AlphaLISA). It is filed as cell-based. To be noted: HMC1.2 mast cell leukemia cells (Kit V560G and D816V), phospho-Y719 c-Kit, 90 minutes; read-out: Cellular Activity IC50. As for the experimental part:
10,000 HMC1.2 cells were incubated in 22 ul culture media (phenol-red free IMDM, no serum) in each well of a 384-well plate and serum starved overnight in a tissue culture incubator (5% CO2, 37° C.). A 10-point dose concentration series of compound (25 uM-95.4 pM) were then added to the cells in a volume of 3.1 ul to each well (0.25% DMSO final concentration). After 90 minutes, 6 ul of 5× AlphaLISA Lysis Buffer (Perkin Elmer) supplemented with a protease and phosphatase inhibitor cocktail (Cell Signaling Technologies) was added to each well and shaken at 450 rpm for 15 minutes at 4° C. 10 ul of phospho-Y719 c-Kit and total c-Kit antibodies (15 nM final concentration, Cell Signaling Technologies) and 50 ug/ml AlphaLISA rabbit acceptor beads (Perkin Elmer) were added to each well and shaken at 300 rpm at room temperature for 2 hours. 10 ul of 100 ug/ml streptavidin donor beads (Perkin Elmer) were added to each well, blocked from light with aluminum adhesive and shaken at 300 rpm at room temperature for 2 hours. Fluorescence signal was obtained on Envision (Perkin Elmer) by AlphaScreen 384 well HTS protocol. Data was normalized to 0% and 100% inhibition controls and the IC50 was calculated using Four Parameter Logistic IC50 curve fitting.
This cell line contains Kit mutated at positions V560G and D816V resulting in constitutive activation of the kinase. The following compounds were tested in an assay to measure direct inhibition of Kit D816V kinase activity by assaying Kit autophosphorylation at tyrosine 719 on the Kit protein.
On the technique in general: Bead proximity is the source of the signal in Alpha formats.

pIC50: −log10 of the molar value. Where only a bound is given, the exact number is not on record here.

T1 sequence (P10721 26-976 D816V): as the sequence (P10721 26-976 V560G/D816V) above, with G535V counted along it

In the case of `Cn1cc(-c2cc3c(-c4ccc(NS(=O)(=O)c5cccc(Cl)c5)cc4)ncnn3c2)cn1` [Compound 37], the values for the pIC50 (on D816V Kit; in experiment [1]) were 7.00 to 8.00 and 6.00 to 7.00, respectively. On the same counts, the results for `Cn1cc(-c2cc3c(-c4ccc(NS(=O)(=O)c5ccc(C#N)cc5)cc4)ncnn3c2)cn1` [Compound 26] are 8.00 to 9.00 and 5.00 to 6.00. On the same counts, the results for `Cn1cc(-c2cc3c(-c4ccc(NC(=O)C(N)c5ccc(Cl)cc5)cc4)ncnn3c2)cn1` (stereo not drawn) [Compound 31, 2-amino-2-(4-chlorophenyl)-N-(4-(6-(1-methyl-1H-pyrazol-4-yl)pyrrolo[1,2-f][1,2,4]triazin-4-yl)phenyl)acetamide] are 8.00 to 9.00 and over 8.00. As for `Cn1cc(-c2cc3c(-c4ccc(NC(=O)Nc5ccc(Cl)cc5)cc4)ncnn3c2)cn1` [Compound 21], the pIC50 on D816V Kit is under 7.00. Consider `Cn1cc(-c2cc3c(-c4ccc(NS(=O)(=O)c5ccc(F)cc5)cc4)ncnn3c2)cn1` [Compound 24], for which the pIC50 at D816V Kit is 8.00 to 9.00; in experiment [1], 6.00 to 7.00. On the same counts, the results for `C[C@@H](C(=O)Nc1ccc(-c2ncnn3cc(-c4cnn(C)c4)cc23)cc1)c1ccc(Cl)cc1` [Compound 28] are 8.00 to 9.00 and over 8.00. Turning to `CS(=O)(=O)Nc1ccc(-c2ncnn3cc(-c4ccc(S(C)(=O)=O)cc4)cc23)cc1` [Compound 16], the negative-log IC50 (pIC50) was 8.00 to 9.00 on D816V Kit and 6.00 to 7.00 in experiment [1]. `CC(C)Oc1ccc(-c2cc3c(-c4ccc(NS(=O)(=O)c5ccc(Cl)cc5)cc4)ncnn3c2)cc1` [Compound 62, 4-chloro-N-(4-(6-(4-isopropoxyphenyl)pyrrolo[2,1-f][1,2,4]triazin-4-yl)phenyl)benzenesulfonamide]: the pIC50 on D816V Kit is 7.00 to 8.00; in experiment [1] it was 5.00 to 6.00. In the case of `Cn1cc(-c2cc3c(-c4ccc(NC(=O)[C@@](C)(O)c5ccc(Cl)cc5)cc4)ncnn3c2)cn1` [Compound 49, 2-(4-chlorophenyl)-2-hydroxy-N-(4-(6-(1-methyl-1H-pyrazol-4-yl)pyrrolo[1,2-f][1,2,4]triazin-4-yl)phenyl)propanamide], the pIC50 at D816V Kit is 8.00 to 9.00; in experiment [1], over 8.00.

Turning to `Cn1cc(-c2cc3c(-c4ccc(NC(=O)C(O)c5ccc(Cl)cc5)cc4)ncnn3c2)cn1` (stereo not drawn) [Compound 33, 2-(4-chlorophenyl)-2-hydroxy-N-(4-(6-(1-methyl-1H-pyrazol-4-yl)pyrrolo[1,2-f][1,2,4]triazin-4-yl)phenyl)acetamide], the pIC50 is 8.00 to 9.00 at D816V Kit and over 8.00 in experiment [1].

`Cn1cc(CC(=O)Nc2ccc(-c3ncnn4cc(-c5cnn(C)c5)cc34)cc2)cn1` [Compound 6]: the pIC50 was 7.00 to 8.00 at D816V Kit and 5.00 to 6.00 in experiment [1].

On to `Cc1ccc(CC(=O)Nc2ccc(-c3ncnn4cc(-c5cnn(C)c5)cc34)cc2)cc1` [Compound 8], for which the pIC50 on D816V Kit was 8.00 to 9.00; in experiment [1], 7.00 to 8.00. For the compound `Cn1cc(-c2cc3c(-c4ccc(NC(=O)Cc5ccc(Cl)cc5Cl)cc4)ncnn3c2)cn1` [Compound 54], the pIC50 on D816V Kit is 8.00 to 9.00; in experiment [1], over 8.00. On to `Cn1cc(-c2cc3c(-c4ccc(NC(=O)c5ccc(Cl)cc5)cc4)ncnn3c2)cn1` [Compound 12], for which, at D816V Kit, the pIC50 is under 7.00. As to `CC[C@H](C(=O)Nc1ccc(-c2ncnn3cc(-c4cnn(C)c4)cc23)cc1)c1ccc(Cl)cc1` [Compound 44], the pIC50 is 7.00 to 8.00 at D816V Kit and 6.00 to 7.00 in experiment [1]. Regarding `Cn1cc(-c2cc3c(-c4ccc(NC(=O)c5ccc(C#N)cc5)cc4)ncnn3c2)cn1` [Compound 7], the negative logarithm of the IC50 (pIC50) at D816V Kit was 7.00 to 8.00. In the case of `CN(C)C(C(=O)Nc1ccc(-c2ncnn3cc(-c4cnn(C)c4)cc23)cc1)c1ccc(Cl)cc1` (stereo not drawn) [Compound 59, 2-(4-chlorophenyl)-2-(dimethylamino)-N-(4-(6-(1-methyl-1H-pyrazol-4-yl)pyrrolo[1,2-f][1,2,4]triazin-4-yl)phenyl)acetamide], the pIC50 on D816V Kit is 8.00 to 9.00; in experiment [1] it was 7.00 to 8.00. As for `Cn1cc(-c2cc3c(-c4ccc(NS(=O)(=O)c5ccc(Cl)cc5)cc4F)ncnn3c2)cn1` [Compound 56], the values for the negative logarithm of the IC50 (pIC50) (on D816V Kit; in experiment [1]) were 8.00 to 9.00 and 6.00 to 7.00, respectively. On to `COC(C(=O)Nc1ccc(-c2ncnn3cc(-c4cnn(C)c4)cc23)cc1)c1ccccc1` (stereo not drawn) [Compound 15], for which, on D816V Kit, the pIC50 is 8.00 to 9.00. As for `Cn1cc(-c2cc3c(-c4ccc(NC(=O)Cc5ccc(Cl)nc5)cc4)ncnn3c2)cn1` [Compound 20], the pIC50 at D816V Kit is 8.00 to 9.00; in experiment [1] it was 7.00 to 8.00.

Turning to `Cn1cc(-c2cc3c(-c4ccc(NC(=O)Cc5ccccc5)cc4)ncnn3c2)cn1` [Compound 3], the pIC50 is 8.00 to 9.00 at D816V Kit and 7.00 to 8.00 in experiment [1].

As to `Cn1cc(-c2cc3c(-c4ccc(NC(=O)Cc5cccc(Cl)c5)cc4)ncnn3c2)cn1` [Compound 18], the pIC50 was 8.00 to 9.00 at D816V Kit and 6.00 to 7.00 in experiment [1]. As to `Cn1cc(-c2cc3c(-c4ccc(NS(=O)(=O)CC5COCCO5)cc4)ncnn3c2)cn1` (stereo not drawn) [Compound 25], the figures for the pIC50 (at D816V Kit; in experiment [1]) were 7.00 to 8.00 and 5.00 to 6.00, respectively. As to `Cn1cc(-c2cc3c(-c4ccc(NC(=O)C5(c6ccc(Cl)cc6)CC5)cc4)ncnn3c2)cn1` [Compound 39], the pIC50 is 7.00 to 8.00 at D816V Kit and 6.00 to 7.00 in experiment [1]. `Cn1cc(-c2cc3c(-c4ccc(NC(=O)Cc5cccnc5)cc4)ncnn3c2)cn1` [Compound 4]: the pIC50 is 8.00 to 9.00 at D816V Kit and 5.00 to 6.00 in experiment [1].

For `Cn1cc(-c2cc3c(-c4ccc(NS(=O)(=O)c5ccccc5Cl)cc4)ncnn3c2)cn1` [Compound 38], the results for the pIC50 (on D816V Kit; in experiment [1]) were 7.00 to 8.00 and 5.00 to 6.00, respectively. The corresponding values for `COc1ccc(S(=O)(=O)Nc2ccc(-c3ncnn4cc(-c5cnn(C)c5)cc34)cc2)cc1` [Compound 35] are 8.00 to 9.00 and 6.00 to 7.00. On the same counts, the results for `O=C(c1ccc(-c2cc3c(-c4ccc(NS(=O)(=O)c5ccc(Cl)cc5)cc4)ncnn3c2)cc1)N1CCC1` [Compound 66] are under 7.00 and 5.00 to 6.00. On to `Cn1cc(-c2cc3c(-c4ccc(NC(=O)[C@](C)(N)c5ccc(Cl)cc5)cc4)ncnn3c2)cn1` [Compound 46, 2-amino-2-(4-chlorophenyl)-N-(4-(6-(1-methyl-1H-pyrazol-4-yl)pyrrolo[1,2-f][1,2,4]triazin-4-yl)phenyl)propanamide], for which the pIC50 on D816V Kit was 8.00 to 9.00; in experiment [1], over 8.00.

As to `CC(C)C(C(=O)Nc1ccc(-c2ncnn3cc(-c4cnn(C)c4)cc23)cc1)c1ccc(Cl)cc1` (stereo not drawn) [Compound 58], the pIC50 (at D816V Kit; in experiment [1]) was 7.00 to 8.00 throughout. With `CCOC(=O)N1CC=C(c2cc3c(-c4ccc(NS(=O)(=O)c5ccc(Cl)cc5)cc4)ncnn3c2)CC1` [Compound 64, ethyl 4-(4-(4-((4-chlorophenyl)sulfonamido)phenyl)pyrrolo[2,1-f][1,2,4]triazin-6-yl)-3,6-dihydropyridine-1(2H)-carboxylate], the pIC50 at D816V Kit is 8.00 to 9.00; in experiment [1], 7.00 to 8.00. As to `Cn1cc(-c2cc3c(-c4ccc(NC(=O)C(C)(N)c5ccc(Cl)cc5)cc4)ncnn3c2)cn1` (stereo not drawn) [Compound 47, 2-amino-2-(4-chlorophenyl)-N-(4-(6-(1-methyl-1H-pyrazol-4-yl)pyrrolo[1,2-f][1,2,4]triazin-4-yl)phenyl)propanamide], the pIC50 at D816V Kit is 8.00 to 9.00; in experiment [1], over 8.00. Take `CO[C@H](C(=O)Nc1ccc(-c2ncnn3cc(-c4cnn(C)c4)cc23)cc1)c1ccc(Cl)cc1` [Compound 53]: the figures for the pIC50 (on D816V Kit; in experiment [1]) were 7.00 to 8.00 and 6.00 to 7.00, respectively. For `Cn1cc(-c2cc3c(-c4ccc(NC(=O)C(O)c5ccccc5)cc4)ncnn3c2)cn1` (stereo not drawn) [Compound 10], the pIC50 on D816V Kit is over 9.00.
